From patent publication US9145372B2, “Pyridazine derivatives, compositions and methods for treating cognitive impairment” (AGENEBIO, INC., priority 2010, dated 2015)
Entries after “also recorded” stand apart in the source; their conditions may differ.

Columns and labels:
[1] = target: T1, GABAA α5β3γ2 subtype receptor (Homo sapiens, UniProt P18507+P31644); test: GABA-gated Cl- current potentiation in Xenopus oocytes expressing GABAA α5β3γ2 (TEVC); type: cell-based; conditions: for activation at 1 µM: read-out: GABA α5 EC50 % potentiation; for positive allosteric modulation of GABA at GABAA α5 receptors: concentration response 0.01-100 μM, FIGS. 1(A)-(D)
T1 construct: myc-His (vector-encoded); expressed in transfected cells; host or cells: Xenopus laevis oocytes injected with cDNAs
T1 sequence (P31644 32-462): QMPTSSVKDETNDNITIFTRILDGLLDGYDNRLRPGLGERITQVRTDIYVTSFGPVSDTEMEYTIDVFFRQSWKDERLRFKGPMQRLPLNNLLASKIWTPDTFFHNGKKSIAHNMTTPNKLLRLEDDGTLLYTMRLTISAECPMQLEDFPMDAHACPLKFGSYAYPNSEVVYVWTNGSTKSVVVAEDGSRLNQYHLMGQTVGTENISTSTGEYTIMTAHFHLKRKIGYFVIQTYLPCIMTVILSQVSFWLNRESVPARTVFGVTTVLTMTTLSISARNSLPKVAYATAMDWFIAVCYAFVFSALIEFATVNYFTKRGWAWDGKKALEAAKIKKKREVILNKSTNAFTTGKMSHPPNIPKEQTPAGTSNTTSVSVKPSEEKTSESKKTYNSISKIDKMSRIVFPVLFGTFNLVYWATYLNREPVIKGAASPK
T1 sequence (P28472 26-473 partner): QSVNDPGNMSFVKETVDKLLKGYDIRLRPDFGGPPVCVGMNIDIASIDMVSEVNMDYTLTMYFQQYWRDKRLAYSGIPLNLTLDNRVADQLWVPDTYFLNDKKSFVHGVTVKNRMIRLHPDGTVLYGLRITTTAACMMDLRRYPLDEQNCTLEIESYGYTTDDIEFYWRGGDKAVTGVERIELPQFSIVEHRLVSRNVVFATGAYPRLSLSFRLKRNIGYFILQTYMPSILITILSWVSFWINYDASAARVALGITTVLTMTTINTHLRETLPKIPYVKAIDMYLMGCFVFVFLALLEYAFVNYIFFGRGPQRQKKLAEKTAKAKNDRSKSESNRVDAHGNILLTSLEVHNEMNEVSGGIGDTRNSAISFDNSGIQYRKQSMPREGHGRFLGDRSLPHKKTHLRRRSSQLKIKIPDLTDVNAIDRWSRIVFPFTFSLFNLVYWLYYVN
T1 sequence (P18507 40-467 limits assumed): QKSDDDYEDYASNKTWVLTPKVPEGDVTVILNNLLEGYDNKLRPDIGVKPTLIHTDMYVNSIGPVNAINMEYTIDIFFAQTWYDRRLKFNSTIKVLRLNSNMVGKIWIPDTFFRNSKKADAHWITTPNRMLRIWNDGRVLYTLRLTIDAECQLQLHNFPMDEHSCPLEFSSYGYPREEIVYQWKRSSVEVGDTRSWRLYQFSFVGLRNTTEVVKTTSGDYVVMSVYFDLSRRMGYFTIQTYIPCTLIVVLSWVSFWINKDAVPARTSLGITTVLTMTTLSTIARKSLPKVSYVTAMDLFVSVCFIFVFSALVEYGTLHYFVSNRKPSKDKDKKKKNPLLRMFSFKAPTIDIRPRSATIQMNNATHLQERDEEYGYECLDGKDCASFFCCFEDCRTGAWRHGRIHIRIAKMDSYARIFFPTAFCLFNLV
Excerpt: (§1) Step 1: Establish Clones of GABAAR Subunits (α5, β3, γ2, α1, α2 and α3) and Prepare the Corresponding cRNAs: Human clones of GABAA-R α5, β3, γ2, α1, α2 and α3 subunits are obtained from commercial resources (e.g., OriGene, http://www.origene.com and Genescript, http://www.genescript.com). These clones are engineered into pRC, pCDM, pcDNA, and pBluescript KSM vector (for oocyte expression) or other equivalent expression vectors. Conventional transfection agents (e.g., FuGene, Lipofectamine 2000, or others) are used to transiently transfect host cells.
Adult female Xenopus laevis frogs were purchased from Nasco (Fort Atkinson, Wis.). […] All chemicals used were of reagent grade. […] Stock solutions of Diazepam, Flumazenil and compounds of the present invention were prepared in dimethyl sulfoxide (DMSO) and then diluted to an appropriate concentration with the extracellular solution just before use. To avoid adverse effects from DMSO exposure, the final concentration of DMSO was not higher than 0.3% (v/v).
Upon conclusion of compound testing and successful washout, a 1.0 μM Diazepam was tested and used for comparative activity on the two GABAAR subtypes.
Other concentrations of the test compound may also be tested following the same protocol.
Results are expressed as mean±SEM.

[2] = target: T2, GABAA α1 receptors (α1β2γ2) (Homo sapiens, UniProt P14867+P18507); test: GABA-gated Cl- current in Xenopus oocytes expressing GABAA α1β2γ2 (TEVC), off-target activity; type: cell-based; conditions: concentration response 0.01-100 μM; FIGS. 1(A)-(D)
T2 construct: expressed in transfected cells; host or cells: Xenopus laevis oocytes injected with cDNAs
T2 sequence (P14867 28-456): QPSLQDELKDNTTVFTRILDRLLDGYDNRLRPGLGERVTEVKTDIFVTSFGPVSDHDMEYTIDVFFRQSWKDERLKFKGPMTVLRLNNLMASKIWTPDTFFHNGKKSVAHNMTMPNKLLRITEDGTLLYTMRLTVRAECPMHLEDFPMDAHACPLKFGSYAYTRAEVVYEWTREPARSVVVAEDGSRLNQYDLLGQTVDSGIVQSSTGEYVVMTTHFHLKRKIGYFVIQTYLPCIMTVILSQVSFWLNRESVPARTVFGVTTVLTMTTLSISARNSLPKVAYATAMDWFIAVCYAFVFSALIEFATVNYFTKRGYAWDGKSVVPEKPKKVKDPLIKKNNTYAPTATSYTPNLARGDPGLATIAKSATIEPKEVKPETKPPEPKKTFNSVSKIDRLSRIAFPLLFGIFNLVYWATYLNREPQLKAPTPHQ
T2 sequence (P47870 25-512 partner limits assumed): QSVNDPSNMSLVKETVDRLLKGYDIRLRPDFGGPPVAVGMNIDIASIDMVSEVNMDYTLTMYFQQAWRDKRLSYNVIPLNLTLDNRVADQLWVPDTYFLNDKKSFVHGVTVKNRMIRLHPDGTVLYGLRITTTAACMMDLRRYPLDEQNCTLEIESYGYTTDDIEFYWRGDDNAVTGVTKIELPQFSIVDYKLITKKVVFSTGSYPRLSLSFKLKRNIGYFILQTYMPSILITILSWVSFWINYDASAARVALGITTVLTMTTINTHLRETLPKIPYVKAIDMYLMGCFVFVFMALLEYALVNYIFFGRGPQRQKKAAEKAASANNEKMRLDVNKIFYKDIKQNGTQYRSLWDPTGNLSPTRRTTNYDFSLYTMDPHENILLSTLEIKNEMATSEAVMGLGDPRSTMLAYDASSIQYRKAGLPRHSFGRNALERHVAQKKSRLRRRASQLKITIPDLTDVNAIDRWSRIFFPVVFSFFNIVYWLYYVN
T2 sequence (P18507 40-467 limits assumed): T1 sequence (P18507 40-467 limits assumed)
Excerpt: as §1
Xenopus oocytes were isolated according to previously published procedures (see, e.g., Goldin et al. Methods Enzymol. 207:266-279 (1992)). The isolated Xenopus oocytes were injected with GABAAR cDNAs (1:1:1 ratio for a total volume of 1 ng of α1βγ2 or α5β3γ2) cloned into mammalian expression vectors. In particular, α1, β2, γ2 were cloned into pcDNA3.1. and α5 and β3 were cloned into pcDNA3.1 myc-His. Vectors were verified by partial sequencing (DNA Core Facility, University of Southern California, USA). After injection, oocytes were stored in incubation medium (Modified Barth's Saline (MBS) supplemented with 2 mM sodium pyruvate, 0.5 mM theophylline and 50 mg/L gentamycin), in petri dishes (VWR, San Dimas, Calif.). All solutions were sterilized by passage through 0.22 μM filters. […] Oocytes were used in experiments for up to 5 days after injection.
A high-throughput two-electrode voltage clamp (TEVC) system (OpusXpress A6000; Molecular Devices, Union City, Calif.), which automates the impalement of oocytes, fluid delivery and current recording from 8 oocytes in parallel, was used to carry out all electrophysiological recordings.
Xenopus Oocytes expressing GABAA-R α5β3γ2 or α1β2γ2 subtype, as prepared in section (A) above, were placed in 8 chambers of OpusXpress and perfused by MBS at 3 mL/min. Glass electrodes back-filled with 3 M KCl (0.5-3 megaohms) were used. Membrane potential of oocytes was voltage-clamped at −60 mV. Oocytes with holding current larger than 0.5 μA were discarded.
Data for each experimental point were obtained from 4 or more Xenopus oocytes and from at least two different frogs. The n refers to the number of Xenopus oocytes tested. Results are expressed as mean±SEM. […] Prism (GraphPAD Software, San Diego, Calif.) and Excel were used to perform curve fitting and statistical analyses.

GABAA α5 receptor = GABAA α5 receptor (Rattus norvegicus, UniProt P18508+P19969); test: GABAA α5 receptor occupancy in vivo with Ro 15-4513 tracer (hippocampus vs cerebellum); conditions: tracer 1 μg/kg, i.v., after vehicle administration
Excerpt: Adult male Long Evans rats (265-295 g, Charles River, Portage, Mich., n=4/group) were used for GABAA α5 receptor occupancy studies. Rats were individually housed in ventilated stainless-steel racks on a 12:12 light/dark cycle. Food and water were available ad libitum.
Ro 15-4513 was used as a receptor occupancy (RO) tracer for GABAA α5 receptor sites in the hippocampus and cerebellum. Ro 15-4513 was chosen as the tracer based on its selectivity for GABAA α5 receptors relative to other alpha subunit containing GABAA receptors and because it has been successfully used for GABAA α5 RO studies in animals and humans (see, e.g., Lingford-Hughes et al., J. Cereb. Blood Flow Metab. 22:878-89 (2002); Pym et al, Br. J. Pharmacol. 146: 817-825 (2005); and Maeda et al., Synapse 47: 200-208 (2003)). Ro 15-4513 (1 μg/kg), was dissolved in 25% hydroxyl-propyl beta-cyclodextrin and administered i.v. 20′ prior to the RO evaluations. Methyl 3,5-diphenylpyridazine-4-carboxylate (0.1-10 mg/kg) was synthesized by Nox Pharmaceuticals (India) and was dissolved in 25% hydroxyl-propyl beta-cyclodextrin and administered i.v. 15′ prior to tracer injection.
The rats were sacrificed by cervical dislocation 20′ post tracer injection. The whole brain was rapidly removed, and lightly rinsed with sterile water. Trunk blood was collected in EDTA coated eppendorf tubes and stored on wet ice until study completion. Hippocampus and cerebellum were dissected and stored in 1.5 ml eppendorf tubes, and placed on wet ice until tissue extraction. In a drug naïve rat, six cortical brain tissues samples were collected for use in generating blank and standard curve samples.
Acetonitrile containing 0.1% formic acid was added to each sample at a volume of four times the weight of the tissue sample. For the standard curve (0.1-30 ng/g) samples, a calculated volume of standard reduced the volume of acetonitrile. The sample was homogenized (FastPrep-24, Lysing Matrix D; 5.5 m/s, for 60 seconds or 7-8 watts power using sonic probe dismembrator; Fisher Scientific) and centrifuged for 16-minutes at 14,000 rpm. The (100 μl) supernatant solution was diluted by 300 μl of sterile water (pH 6.5). This solution was then mixed thoroughly and analyzed via LC/MS/MS for […] (tracer) and methyl 3,5-diphenylpyridazine-4-carboxylate.
Receptor occupancy was determined by the ratio method which compared occupancy in the hippocampus (a region of high GABAA α5 receptor density) with occupancy in the cerebellum (a region with low GABAA α5 receptor density) and additionally by a high dose of the GABAA α5 negative allosteric modulator L-655,708 (10 mg/kg, i.v.) to define full occupancy.

Sequence of GABAA α5 receptor (P19969 32-464 limits assumed): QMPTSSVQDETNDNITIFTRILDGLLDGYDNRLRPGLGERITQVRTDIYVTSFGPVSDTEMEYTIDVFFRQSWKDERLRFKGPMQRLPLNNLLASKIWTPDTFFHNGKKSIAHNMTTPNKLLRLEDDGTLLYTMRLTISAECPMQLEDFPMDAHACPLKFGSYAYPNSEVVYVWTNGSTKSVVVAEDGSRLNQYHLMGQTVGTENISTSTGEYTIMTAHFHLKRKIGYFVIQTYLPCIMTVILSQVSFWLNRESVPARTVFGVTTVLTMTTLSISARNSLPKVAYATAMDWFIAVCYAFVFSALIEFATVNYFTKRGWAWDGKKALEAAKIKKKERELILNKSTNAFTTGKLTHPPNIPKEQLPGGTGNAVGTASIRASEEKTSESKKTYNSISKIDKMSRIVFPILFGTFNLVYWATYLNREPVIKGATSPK
Sequence of GABAA α5 receptor (P18508 39-466): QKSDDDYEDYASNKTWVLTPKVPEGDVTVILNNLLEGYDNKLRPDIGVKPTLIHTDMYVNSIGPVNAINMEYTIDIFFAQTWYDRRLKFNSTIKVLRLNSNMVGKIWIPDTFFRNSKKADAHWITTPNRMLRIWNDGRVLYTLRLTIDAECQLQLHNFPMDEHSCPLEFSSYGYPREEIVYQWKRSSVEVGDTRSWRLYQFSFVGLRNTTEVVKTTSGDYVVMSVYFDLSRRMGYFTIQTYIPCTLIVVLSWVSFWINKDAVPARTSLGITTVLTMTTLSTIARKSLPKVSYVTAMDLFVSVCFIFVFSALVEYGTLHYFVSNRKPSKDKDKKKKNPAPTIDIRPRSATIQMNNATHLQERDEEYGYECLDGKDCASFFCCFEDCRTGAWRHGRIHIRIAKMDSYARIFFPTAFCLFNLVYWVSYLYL
Sequence of GABAA α5 receptor (P63079 26-473 partner): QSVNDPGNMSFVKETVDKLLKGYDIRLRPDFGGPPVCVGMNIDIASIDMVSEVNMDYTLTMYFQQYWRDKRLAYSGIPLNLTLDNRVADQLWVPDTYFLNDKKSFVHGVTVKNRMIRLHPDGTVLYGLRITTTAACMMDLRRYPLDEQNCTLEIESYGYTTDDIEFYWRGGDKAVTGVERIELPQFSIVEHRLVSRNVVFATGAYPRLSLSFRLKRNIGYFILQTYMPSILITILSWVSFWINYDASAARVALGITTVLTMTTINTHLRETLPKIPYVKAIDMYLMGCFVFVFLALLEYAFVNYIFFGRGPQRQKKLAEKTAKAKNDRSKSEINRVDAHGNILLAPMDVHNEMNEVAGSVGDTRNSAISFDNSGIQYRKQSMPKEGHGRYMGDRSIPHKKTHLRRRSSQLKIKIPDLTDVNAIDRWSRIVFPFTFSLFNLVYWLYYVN

Row | Compound | activation at 1 µM [1] | positive allosteric modulation at GABAA α1 receptors [2] | positive allosteric modulation of GABA at GABAA α5 receptors [1] | levels of Ro 15-4513 in hippocampus compared with cerebellum (GABAA α5 receptor)
1 | CNC(=O)c1c(-c2ccccc2)cnnc1-c1ccccc1 [Compound 1, N-methyl-3,5-diphenylpyridazine-4-carboxamide] | 8.5% | – | – | –
2 | CC(C)NC(=O)c1c(-c2ccccc2)cnnc1-c1ccccc1 [Compound 2] | 8.2% | – | – | –
3 | NC(=O)c1c(-c2ccccc2)cnnc1-c1ccccc1 [Compound 3] | 11.1% | – | – | –
4 | CN(C)C(=O)c1c(-c2ccccc2)cnnc1-c1ccccc1 [Compound 4] | 42% | markedly reduced positive allosteric modulation | strong positive allosteric modulation | –
5 | O=C(c1c(-c2ccccc2)cnnc1-c1ccccc1)N(Cc1ccccc1)Cc1ccccc1 [Compound 5] | 4.6% | – | – | –
6 | O=C(NCc1ccccc1)c1c(-c2ccccc2)cnnc1-c1ccccc1 [Compound 9] | 10% | – | – | –
7 | COc1cccc(-c2nncc(-c3ccccc3)c2C(=O)O)c1 [Compound 11] | 19.2% | – | – | –
8 | CC1COC(c2c(-c3ccccc3)cnnc2-c2ccccc2)=N1 (centres unmarked) [Compound 21, 2-(3,5-diphenylpyridazin-4-yl)-4-methyl-4,5-dihydrooxazole] | 5.3% | – | – | –
9 | CCc1coc(-c2c(-c3ccccc3)cnnc2-c2ccccc2)n1 [Compound 22, 2-(3,5-diphenylpyridazin-4-yl)-4-ethyloxazole] | 8.6% | – | – | –
10 | COc1cccc(-c2nncc(-c3ccccc3)c2-c2nc(C)co2)c1 [Compound 24] | 6% | – | – | –
11 | COC(=O)C1COC(c2c(-c3ccccc3)cnnc2-c2ccccc2)=N1 (centres unmarked) [Compound 25, Methyl 2-(3,5-diphenylpyridazin-4-yl)-4,5-dihydrooxazole-4-carboxylate] | 8.6% | – | – | –
12 | COC(=O)c1coc(-c2c(-c3ccccc3)cnnc2-c2ccccc2)n1 [Compound 26, Methyl 2-(3,5-diphenylpyridazin-4-yl)oxazole-4-carboxylate] | 15.8% | markedly reduced positive allosteric modulation; also recorded: no evidence of activity | strong positive allosteric modulation | –
13 | COC(=O)c1coc(-c2c(-c3ccccc3)cnnc2-c2cccc(Cl)c2)n1 [Compound 27] | 30.5% | markedly reduced positive allosteric modulation | strong positive allosteric modulation | –
14 | CCOC(=O)c1ncn2c1CN(C)C(=O)c1cc(N=[N+]=[N-])ccc1-2 [Ro 15-4513] | – | – | – | > 5 fold
